This is an account of results in patent US12162893B2 (Erasca, Inc., priority 2020, dated 2024).

The target in the assay is T1, mutant G12C K-RAS (Homo sapiens, UniProt P01116, G12C).
T1 construct: made in house; host or cells: E. coli BL21
Kind of assay: covalent adduct formation (CAF) with mutant G12C K-RAS. Type of assay: binding. As to conditions: Table 6; 10 μM, 1 h. As for the experimental part:
Embodiments disclosed herein are further illustrated by the following examples in Tables 1-4 and the Examples hereinbelow. The Tables indicate the compound number, structure, the observed mass spectral molecular weight peak, and covalent adduct formation (CAF) with a mutant G12C K-RAS after 60 minutes at a concentration of 10 micromolar.

For `C=CC(=O)N1C[C@H](C)N(c2nc(=O)n3c4c(c(-c5ccc(F)cc5F)c(Cl)cc24)OC[C@H]3COC2CCN(C)CC2)C[C@H]1C` [Example 297, (3R)-7-((2S,5R)-4-acryloyl-2,5-dimethylpiperazin-1-yl)-9-chloro-10-(2,4-difluorophenyl)-3-(((1-methylpiperidin-4-yl)oxy)methyl)-2H-[1,4]oxazino[2,3,4-ij]quinazolin-5(3H)-one], the “% CAF @ 10 μM,1 h” value stood at 90.5%.

Turning to `C=CC(=O)N1C[C@H](C)N(c2nc(=O)n3c4c(c(-c5ccc(F)cc5F)c(Cl)cc24)OC[C@H]3CCCN2CC(F)(F)C2)C[C@H]1C` [Example 298, (3R)-7-((2S,5R)-4-acryloyl-2,5-dimethylpiperazin-1-yl)-9-chloro-3-(3-(3,3-difluoroazetidin-1-yl)propyl)-10-(2,4-difluorophenyl)-2,3-dihydro-5H-[1,4]oxazino[2,3,4-ij]quinazolin-5-one], the “% CAF @ 10 μM,1 h” value is given as 68%.

`C=CC(=O)N1C[C@H](C)N(c2nc(=O)n3c4c(c(-c5ccc(F)cc5F)c(Cl)cc24)OC[C@H]3CCCN2CC3(COC3)C2)C[C@H]1C` [Example 299, (3R)-3-(3-(2-oxa-6-azaspiro[3.3]heptan-6-yl)propyl)-7-((2S,5R)-4-acryloyl-2,5-dimethylpiperazin-1-yl)-9-chloro-10-(2,4-difluorophenyl)-2,3-dihydro-5H-[1,4]oxazino[2,3,4-ij]quinazolin-5-one]: the “% CAF @ 10 μM,1 h” value was 75.4%.

With `C=CC(=O)N1C[C@H](C)N(c2nc(=O)n3c4c(c(-c5ccc(F)cc5F)c(Cl)cc24)OC[C@H]3CO[C@@H]2CCN(C)C2)C[C@H]1C` [Example 302, (3R)-7-((2S,5R)-4-acryloyl-2,5-dimethylpiperazin-1-yl)-9-chloro-10-(2,4-difluorophenyl)-3-((((R)-1-methylpyrrolidin-3-yl)oxy)methyl)-2,3-dihydro-5H-[1,4]oxazino[2,3,4-ij]quinazolin-5-one], the “% CAF @ 10 μM,1 h” value was 45.8%.

Regarding `C=CC(=O)N1CCN(c2nc(=O)n3c4c(c(-c5ccc(F)cc5F)c(Cl)cc24)OCC3)[C@@H](CO)C1` [Example 303, 7-((R)-4-acryloyl-2-(hydroxymethyl)piperazin-1-yl)-9-chloro-10-(2,4-difluorophenyl)-2,3-dihydro-5H-[1,4]oxazino[2,3,4-ij]quinazolin-5-one], the “% CAF @ 10 μM,1 h” value is listed as 15.4%.

On to `C=CC(=O)N1C[C@H](C)N(c2nc(=O)n3c4c(c(-c5ccc(F)cc5F)c(Cl)cc24)OC[C@@H]3CC2(O)CCN(C)CC2)C[C@H]1C` [Example 304, (3S)-7-((2S,5R)-4-acryloyl-2,5-dimethylpiperazin-1-yl)-9-chloro-10-(2,4-difluorophenyl)-3-((4-hydroxy-1-methylpiperidin-4-yl)methyl)-2,3-dihydro-5H-[1,4]oxazino[2,3,4-ij]quinazolin-5-one], for which the “% CAF @ 10 μM,1 h” value is 45.1%.

Consider `C=CC(=O)N1C[C@H](C)N(c2nc(=O)n3c4c(c(-c5ccc(F)cc5F)c(Cl)cc24)OC[C@H]3CN(C(=O)[C@@H]2CCCN2C)C2CC2)C[C@H]1C` [Example 307, (2S)-N-(((3R)-7-((2S,5R)-4-acryloyl-2,5-dimethylpiperazin-1-yl)-9-chloro-10-(2,4-difluorophenyl)-5-oxo-3,5-dihydro-2H-[1,4]oxazino[2,3,4-ij]quinazolin-3-yl)methyl)-N-cyclopropyl-1-methylpyrrolidine-2-carboxamide], for which the “% CAF @ 10 μM,1 h” value amounted to 51.1%.

As to `C=CC(=O)N1C[C@H](C)N(c2nc(=O)n3c4c(c(-c5ccc(F)cc5F)c(Cl)cc24)OC[C@@H]3CN(C(=O)[C@@H]2CCCN2C)C2CC2)C[C@H]1C` [Example 310, (2S)-N-(((3S)-7-((2S,5R)-4-acryloyl-2,5-dimethylpiperazin-1-yl)-9-chloro-10-(2,4-difluorophenyl)-5-oxo-2,3-dihydro-5H-[1,4]oxazino[2,3,4-ij]quinazolin-3-yl)methyl)-N-cyclopropyl-1-methylpyrrolidine-2-carboxamide], the “% CAF @ 10 μM,1 h” value worked out at 53.4%.

For `C=CC(=O)N1C[C@H](C)N(c2nc(=O)n3c4c(c(-c5ccc(F)cc5F)c(Cl)cc24)OC[C@H]3CCCN2C3CCC2CN(C)C3)C[C@H]1C` [Example 311, (3R)-7-((2S,5R)-4-acryloyl-2,5-dimethylpiperazin-1-yl)-9-chloro-10-(2,4-difluorophenyl)-3-(3-(3-methyl-3,8-diazabicyclo[3.2.1]octan-8-yl)propyl)-2,3-dihydro-5H-[1,4]oxazino[2,3,4-ij]quinazolin-5-one], the “% CAF @ 10 μM,1 h” value turned out to be 64.1%.

On to `C=CC(=O)N1C[C@H](C)N(c2nc(=O)n3c4c(c(-c5ccc(F)cc5F)c(Cl)cc24)OC[C@H]3CCCN2CC3CCC(C2)O3)C[C@H]1C` [Example 312, (3R)-3-(3-(8-oxa-3-azabicyclo[3.2.1]octan-3-yl)propyl)-7-((2S,5R)-4-acryloyl-2,5-dimethylpiperazin-1-yl)-9-chloro-10-(2,4-difluorophenyl)-2,3-dihydro-5H-[1,4]oxazino[2,3,4-ij]quinazolin-5-one], for which the “% CAF @ 10 μM,1 h” value is given as 68.2%.

For `C=CC(=O)N1C[C@H](C)N(c2nc(=O)n3c4c(c(-c5ccc(F)cc5F)c(Cl)cc24)OC[C@H]3CCCN2C[C@H]3C[C@@H]2CO3)C[C@H]1C` [Example 315, (3R)-3-(3-((1R,4R)-2-oxa-5-azabicyclo[2.2.1]heptan-5-yl)propyl)-7-((2S,5R)-4-acryloyl-2,5-dimethylpiperazin-1-yl)-9-chloro-10-(2,4-difluorophenyl)-2,3-dihydro-5H-[1,4]oxazino[2,3,4-ij]quinazolin-5-one], the “% CAF @ 10 μM,1 h” value worked out at 89.8%.

On to `C=CC(=O)N1C[C@H](C)N(c2nc(=O)n3c4c(c(-c5ccc(F)cc5F)c(Cl)cc24)OC[C@H]3CC2CCN(C3COC3)CC2)C[C@H]1C` [Example 316, (3R)-7-((2S,5R)-4-acryloyl-2,5-dimethylpiperazin-1-yl)-9-chloro-10-(2,4-difluorophenyl)-3-((1-(oxetan-3-yl)piperidin-4-yl)methyl)-2H-[1,4]oxazino[2,3,4-ij]quinazolin-5(3H)-one], for which the “% CAF @ 10 μM,1 h” value was determined as 84.2%.

With `C=CC(=O)N1C[C@H](C)N(c2nc(=O)n3c4c(c(-c5ccc(F)cc5F)c(C5CC5)cc24)OC[C@H]3CCCN2C[C@@H]3C[C@H]2CO3)C[C@H]1C` [Example 323, (3R)-3-(3-((1S,4S)-2-oxa-5-azabicyclo[2.2.1]heptan-5-yl)propyl)-7-((2S,5R)-4-acryloyl-2,5-dimethylpiperazin-1-yl)-9-cyclopropyl-10-(2,4-difluorophenyl)-2,3-dihydro-5H-[1,4]oxazino[2,3,4-ij]quinazolin-5-one], the “% CAF @ 10 μM,1 h” value was 81.1%.

In the case of `C=CC(=O)N1C[C@H](C)N(c2nc(=O)n3c4c(c(-c5ccc(F)cc5F)c(Cl)cc24)OC[C@@H]3CC2CCN(C)CC2)C[C@H]1C` [Example 324, (3S)-7-((2S,5R)-4-acryloyl-2,5-dimethylpiperazin-1-yl)-9-chloro-10-(2,4-difluorophenyl)-3-((1-methylpiperidin-4-yl)methyl)-2H-[1,4]oxazino[2,3,4-ij]quinazolin-5(3H)-one], the “% CAF @ 10 μM,1 h” value is 63.4%.

Turning to `C=CC(=O)N1C[C@H](C)N(c2nc(=O)n3c4c(c(-c5ccc(F)cc5F)c(Cl)cc24)OC[C@H]3CCCN(C)C2COC2)C[C@H]1C` [Example 327, (3R)-7-((2S,5R)-4-acryloyl-2,5-dimethylpiperazin-1-yl)-9-chloro-10-(2,4-difluorophenyl)-3-(3-(methyl(oxetan-3-yl)amino)propyl)-2,3-dihydro-5H-[1,4]oxazino[2,3,4-ij]quinazolin-5-one], the “% CAF @ 10 μM,1 h” value is listed as 84.5%.

With `C=CC(=O)N1C[C@H](C)N(c2nc(=O)n3c4c(c(-c5ccc(F)cc5F)c(Cl)cc24)OC[C@H]3CC2CCN(CC(F)F)CC2)C[C@H]1C` [Example 328, (3R)-7-((2S,5R)-4-acryloyl-2,5-dimethylpiperazin-1-yl)-9-chloro-3-((1-(2,2-difluoroethyl)piperidin-4-yl)methyl)-10-(2,4-difluorophenyl)-2H-[1,4]oxazino[2,3,4-ij]quinazolin-5(3H)-one], the “% CAF @ 10 μM,1 h” value is 87%.

On to `C=CC(=O)N1C[C@H](C)N(c2nc(=O)n3c4c(c(-c5ccc(F)cc5F)c(Cl)cc24)OC[C@H]3CC2CCN(C3CC3)CC2)C[C@H]1C` [Example 329, (3R)-7-((2S,5R)-4-acryloyl-2,5-dimethylpiperazin-1-yl)-9-chloro-3-((1-cyclopropylpiperidin-4-yl)methyl)-10-(2,4-difluorophenyl)-2H-[1,4]oxazino[2,3,4-ij]quinazolin-5(3H)-one], for which the “% CAF @ 10 μM,1 h” value is listed as 73.4%.

For the compound `C=CC(=O)N1C[C@H](C)N(c2nc(=O)n3c4c(c(-c5ccc(F)cc5F)c(Cl)cc24)OC[C@H]3CCCN2CC[C@H](F)C2)C[C@H]1C` [Example 330, (3R)-7-((2S,5R)-4-acryloyl-2,5-dimethylpiperazin-1-yl)-9-chloro-10-(2,4-difluorophenyl)-3-(3-((S)-3-fluoropyrrolidin-1-yl)propyl)-2,3-dihydro-5H-[1,4]oxazino[2,3,4-ij]quinazolin-5-one], the “% CAF @ 10 μM,1 h” value turned out to be 91.7%.

For the compound `C=CC(=O)N1C[C@H](C)N(c2nc(=O)n3c4c(c(-c5ccc(F)cc5F)c(Cl)cc24)OC[C@H]3CCCN(CC(F)(F)F)C2COC2)C[C@H]1C` [Example 331, (3R)-7-((2S,5R)-4-acryloyl-2,5-dimethylpiperazin-1-yl)-9-chloro-10-(2,4-difluorophenyl)-3-(3-(oxetan-3-yl(2,2,2-trifluoroethyl)amino)propyl)-2,3-dihydro-5H-[1,4]oxazino[2,3,4-ij]quinazolin-5-one], the “% CAF @ 10 μM,1 h” value came out at 59.2%.

As to `C=CC(=O)N1C[C@H](C)N(c2nc(=O)n3c4c(c(-c5ccc(F)cc5F)c(C#N)cc24)OC[C@H]3CCCN2C[C@@H]3C[C@H]2CO3)C[C@H]1C` [Example 332, (3R)-3-(3-((1S,4S)-2-oxa-5-azabicyclo[2.2.1]heptan-5-yl)propyl)-7-((2S,5R)-4-acryloyl-2,5-dimethylpiperazin-1-yl)-10-(2,4-difluorophenyl)-5-oxo-2,3-dihydro-5H-[1,4]oxazino[2,3,4-ij]quinazoline-9-carbonitrile], the “% CAF @ 10 μM,1 h” value is 56.9%.
